{"source": "patent US20220049283A1", "about": "“Method of detecting SARS-CoV-2 cleavage targeted proprotein convertase and facilitated protease activity” (priority 2020, published 2022)", "system": "SARS-CoV-2 specific substrate (S1/S2 boundary peptide)", "type": "biochemical", "details": "substrate 10 ng/well, 25 min incubation, OD 450 nm, FIG. 4"}
{"substance": "trypsin", "values": [{"measurement": "lowest amount of enzyme from which cleavage activity can be detected", "value": 10, "unit": "ng"}]}
